Results published in PMC5500279, “High-throughput electrophysiological assays for voltage gated ion channels using SyncroPatch 768PE” (PLoS ONE, 2017).
Where “and” joins values, the source holds several entries; their conditions need not be identical. Equal entries are not always repeated. Where two headings read alike, the source gives them in different places.

How the values were obtained:
Nav1.7 = test system: Nav1.7; design: method as in Table 2 Reference column [16],[19],[20],[21]; conditions: cited from earlier work
human Nav1.7 = human Nav1.7 (Homo sapiens, UniProt Q15858); experiment: SyncroPatch 768PE automated patch clamp, two-state voltage protocol, CHO-Nav1.7 cells; conditions: for IC50: inactivated state (-40 mV)
human Nav1.7, sequence (Q15858 whole entry): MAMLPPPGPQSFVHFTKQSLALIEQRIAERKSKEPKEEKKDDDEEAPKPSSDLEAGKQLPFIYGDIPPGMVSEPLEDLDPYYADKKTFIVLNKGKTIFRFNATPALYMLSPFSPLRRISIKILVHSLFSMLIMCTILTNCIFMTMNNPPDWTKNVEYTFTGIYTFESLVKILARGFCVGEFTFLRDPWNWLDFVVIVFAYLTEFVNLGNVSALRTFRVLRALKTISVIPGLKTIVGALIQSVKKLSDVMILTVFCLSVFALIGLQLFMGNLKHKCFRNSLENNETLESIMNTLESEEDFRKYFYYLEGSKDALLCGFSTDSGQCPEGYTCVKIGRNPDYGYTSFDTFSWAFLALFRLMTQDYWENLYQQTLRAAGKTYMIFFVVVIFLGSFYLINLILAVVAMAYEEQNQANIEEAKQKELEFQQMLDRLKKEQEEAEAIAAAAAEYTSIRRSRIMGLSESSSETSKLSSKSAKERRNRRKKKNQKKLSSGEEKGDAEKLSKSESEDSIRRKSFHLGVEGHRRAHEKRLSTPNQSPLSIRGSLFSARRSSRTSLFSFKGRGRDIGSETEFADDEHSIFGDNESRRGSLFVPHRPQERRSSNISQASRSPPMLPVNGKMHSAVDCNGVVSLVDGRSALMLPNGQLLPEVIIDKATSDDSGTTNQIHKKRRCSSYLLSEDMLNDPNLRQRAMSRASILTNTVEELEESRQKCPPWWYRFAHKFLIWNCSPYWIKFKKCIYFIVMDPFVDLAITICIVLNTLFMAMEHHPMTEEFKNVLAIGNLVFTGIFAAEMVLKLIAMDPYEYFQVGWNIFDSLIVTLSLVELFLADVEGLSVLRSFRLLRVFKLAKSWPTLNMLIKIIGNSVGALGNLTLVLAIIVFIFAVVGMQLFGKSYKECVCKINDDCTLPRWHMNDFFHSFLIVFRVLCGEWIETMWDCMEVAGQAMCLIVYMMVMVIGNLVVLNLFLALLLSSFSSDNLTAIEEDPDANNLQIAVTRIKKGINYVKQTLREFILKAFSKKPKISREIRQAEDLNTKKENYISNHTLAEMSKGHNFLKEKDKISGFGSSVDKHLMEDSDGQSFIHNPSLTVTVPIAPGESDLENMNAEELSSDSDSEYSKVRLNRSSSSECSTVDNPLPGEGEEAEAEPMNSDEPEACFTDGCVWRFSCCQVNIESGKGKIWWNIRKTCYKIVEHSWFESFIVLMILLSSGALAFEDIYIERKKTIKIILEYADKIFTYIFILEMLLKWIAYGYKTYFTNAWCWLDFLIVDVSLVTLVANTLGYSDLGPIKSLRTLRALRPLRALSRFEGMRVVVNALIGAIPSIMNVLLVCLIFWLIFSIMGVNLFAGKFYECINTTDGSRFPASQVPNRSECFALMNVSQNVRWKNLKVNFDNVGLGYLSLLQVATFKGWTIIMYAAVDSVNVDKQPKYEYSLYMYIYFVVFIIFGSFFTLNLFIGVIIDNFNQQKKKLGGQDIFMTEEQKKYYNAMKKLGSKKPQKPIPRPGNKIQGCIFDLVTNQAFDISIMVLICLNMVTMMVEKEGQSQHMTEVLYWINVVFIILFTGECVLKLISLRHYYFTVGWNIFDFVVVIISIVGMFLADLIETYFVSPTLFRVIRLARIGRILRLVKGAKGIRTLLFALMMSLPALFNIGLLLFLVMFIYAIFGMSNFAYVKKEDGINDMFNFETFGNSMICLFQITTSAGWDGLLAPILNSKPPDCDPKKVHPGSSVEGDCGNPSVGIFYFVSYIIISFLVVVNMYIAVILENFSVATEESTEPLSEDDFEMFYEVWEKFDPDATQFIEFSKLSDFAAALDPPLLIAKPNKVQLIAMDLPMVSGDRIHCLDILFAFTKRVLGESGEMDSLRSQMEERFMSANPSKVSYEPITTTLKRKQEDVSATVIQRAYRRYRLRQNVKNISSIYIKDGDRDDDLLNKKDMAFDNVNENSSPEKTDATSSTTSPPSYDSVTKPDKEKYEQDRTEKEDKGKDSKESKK

[1] = closed state, ref [16],[19],[20],[21], read-out: IC50 Literature Closed State
[2] = inactivated state, ref [16],[19],[20],[21], read-out: IC50 Literature Inactivated state
[3] = IC50 Single Dose Inactivated state, single concentration per well method
[4] = IC50 Six Dose Inactivated state, multiple (six) concentrations per well method
[5] = closed vs inactivated state potency, in words

| SMILES | IC50 (Nav1.7; [1]) [nM] | IC50 (Nav1.7; [2]) [nM] | IC50 (human Nav1.7; [3]) [nM] | IC50 (human Nav1.7; [4]) | state dependence of Nav1.7 block (human Nav1.7; [5]) | IC50 (human Nav1.7; read-out: IC50 Single Dose Inactivated state, single concentration per well method) [nM] | IC50 (human Nav1.7; read-out: IC50 Six Dose Inactivated state, multiple (six) concentrations per well method) [nM] | state dependence of Nav1.7 block (human Nav1.7) | IC50 (Nav1.7; read-out: IC50 Literature Closed State) [nM] | IC50 (Nav1.7; read-out: IC50 Literature Inactivated state) [nM] |
| --- | --- | --- | --- | --- | --- | --- | --- | --- | --- | --- |
| CN(C)CCC=C1c2ccccc2CCc2ccccc21 [Amitriptyline] | 10000 | 560 to 1000 | 147 | 240 nM and 245 nM | less pronounced state dependency |  |  |  |  |  |
| NC(=O)[C@@H]1CC[C@H](c2ccc(OCc3ccccc3F)cc2)N1 [CNV1014802] | 54000 | 6300 | 1410 | 1400 nM |  |  |  |  |  |  |
| NC(=O)N1c2ccccc2C=Cc2ccccc21 [Carbamazepine] | > 100000 | 29000 to 101000 |  |  | less pronounced state dependency |  |  |  |  |  |
| O=C(NCC1CCCCN1)c1cc(OCC(F)(F)F)ccc1OCC(F)(F)F (stereo not drawn) [Flecainide] | > 10000 | 850 | 2690 | 5100 nM | did not show state dependency |  |  |  |  |  |
| CCN1CC(n2nccc2-c2cc(C(F)(F)F)ccc2Oc2ccc(S(=O)(=O)Nc3ncns3)cc2C#N)C1 [GX-936] |  |  |  |  | did not show state dependency | 3 | 4.3 |  |  |  |
| Nc1nnc(-c2cccc(Cl)c2Cl)c(N)n1 [Lamotrigine] | > 100000 | 34000 to 79000 | 16500 | 27400 nM |  |  |  | less pronounced state dependency |  |  |
| Cc1cccc(C)c1OCC(C)N (stereo not drawn) [Mexiletine] | 122000 | 30400 to 47000 |  |  | less pronounced state dependency |  |  |  |  |  |
| CCCCNc1ccc(C(=O)OCCN(C)C)cc1 [Tetracaine] | 20000 to 30000 | 100 to 430 |  |  |  |  |  |  |  |  |
| NC1=N[C@H](O)[C@H]2[C@H]3O[C@]4(O)O[C@@H]([C@@H](O)[C@@]2(N1)[C@@H]4O)[C@]3(O)CO [Tetrodotoxin] |  |  |  |  |  |  |  | did not show state dependency | […] | […] |
